This passage reports IC50 results from patent US8252781B2, “1,2-diazetidin-3-one derivatives and drugs containing same” (Kowa Company, Ltd., priority 2008, dated 2012).

Structures are written as SMILES. Where two headings read alike, the source gives them in different places.

In assay [1] the target is T1, mouse 11β-HSD1 (Mus musculus, UniProt P50172).
T1 construct: The obtained PCR products of about 0.9 kbp, 1.2 kbp, and 0.9 kbp were subcloned into an expression vector pcDNA3.1+/Zeo; expressed in transfected cells
T1 sequence (P50172 whole entry): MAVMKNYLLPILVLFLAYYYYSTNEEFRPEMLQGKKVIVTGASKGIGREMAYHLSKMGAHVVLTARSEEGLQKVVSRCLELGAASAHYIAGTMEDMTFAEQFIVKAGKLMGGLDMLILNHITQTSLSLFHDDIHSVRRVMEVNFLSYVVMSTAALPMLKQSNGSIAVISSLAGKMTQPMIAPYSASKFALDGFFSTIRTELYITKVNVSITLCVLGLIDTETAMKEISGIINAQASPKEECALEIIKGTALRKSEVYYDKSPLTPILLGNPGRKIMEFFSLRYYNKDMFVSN
In words: Enzyme inhibitory activity, mouse 11β-HSD1 (lysate of stably expressing CHO-K1 cells, cortisol by competitive ELISA). Type of assay: biochemical. The conditions noted are these: Table 2; mouse 11β-HSD1, cell lysate, 37° C. for 1 hour; read-out: m HSD1 in vitro assay (IC50 uM). The procedure:
(§1) 1. Human 11β-HSD1-, Human 11β-HSD2- and Mouse 11β-HSD1-Gene Clonings and Establishment of Stably Expressing Cells
(§2) Human 11β-HSD1-, human 11β-HSD2-, and mouse 11β-HSD1-gene clonings were conducted using as a template a reverse transcription product of human-liver RNA, human-kidney RNA (CELL APPLICATIONS), and mouse-kidney RNA respectively, by means of PCR cloning with reference to nucleotide sequences of Genbank Accession Nos. NM_005525, NM_000196, and NM_008288. The obtained PCR products of about 0.9 kbp, 1.2 kbp, and 0.9 kbp were subcloned into an expression vector pcDNA3.1+/Zeo (Invitrogen).
(§3) Human 11β-HSD1- and human 11β-HSD2-expressing vectors were transfected into human kidney-derived cell line, HEK293 cells, using a transfection reagent, jet PEI (Funakoshi). Mouse 11β-HSD1 was transfected to Chinese hamster ovary-derived cell line, CHO-K1 cells. Selection was conducted with 200-400 μg/mL of zeocine (Invitrogen) to provide stably expressing-cell clones. The stably expressing cells were suspended in buffer solution A (20 mmol/L Tris-HCl, pH 7.4, 250 mmol/L sucrose, 1 mmol/L EGTA, 1 mmol/L EDTA, 1 mmol/L MgCl2), sonicated, and then stored at −80° C.
(§4) 2. Assay of Enzyme Inhibitory Activity
(§5) An enzymatic reaction was conducted using a polystyrene 96-well plate. Each well was added with 1 μL of a test agent dissolved in DMSO and then diluted (0.003 to 3 mmol/L), and further added with 10 μL of cell lysate diluted to a concentration of 0.1 mg/mL to 0.4 mg/mL. Next, 90 μL of buffer solution A containing substrate (100 nmol/L cortisone or cortisol) and coenzyme (400 μmol/L NADPH or NAD+) was added and the mixture was incubated at 37° C. for 1 hour. The enzymatic reaction was stopped by treating at 95° C. for 3 minutes. Cortisol that was present in the reaction solution was determined by a competitive ELISA shown below.
(§6) Anti-rabbit IgG antibody (Chemi-con) diluted to 2 μg/mL with carbonate buffer solution (pH 9.6) was added in 100 μL each to a 96-well immuno plate (Nunc) and immobilized by an incubation at 4° C. overnight. 50 μL of enzymatic reaction solution was put onto the plates, and further, anti-cortisol antibody (Cosmo Bio) and HRP-labeled cortisol (Cosmo Bio), diluted with buffer solution B (25 mmol/L Tris-HCl pH 7.4, 137 mmol/L NaCl, 2.68 mmol/L KCl), were added in 50 μL respectively and incubated at 4° C. overnight. After washed three times with buffer solution B containing 0.05% Tween 20, the plates were allowed to develop color by adding 100 μL of color reagent, TMB (Moss). The color reaction was stopped by 25 μL of 1 mol/L sulfuric acid and the absorbance was determined at 450 nm with a microplate reader (Molecular Device, VersaMax).
(§7) The values of human 11β-HSD1, human 11β-HSD2, and mouse 11β-HSD1 activities were subtracted from 100, and the resultant values were regarded as the respective 11β-HSD inhibition rates of example compounds. […] The comparison of human 11β-HSD1 and human 11β-HSD2 inhibiting activities is shown in Table 1, and the comparison of human 11β-HSD1 and mouse 11β-HSD1 inhibiting activities is shown in Table 2.

In assay [2] the target is T2, human 11β-HSD1 (Homo sapiens, UniProt P28845).
T2 construct: The obtained PCR products of about 0.9 kbp, 1.2 kbp, and 0.9 kbp were subcloned into an expression vector pcDNA3.1+/Zeo; expressed in transfected cells
T2 sequence (P28845 whole entry): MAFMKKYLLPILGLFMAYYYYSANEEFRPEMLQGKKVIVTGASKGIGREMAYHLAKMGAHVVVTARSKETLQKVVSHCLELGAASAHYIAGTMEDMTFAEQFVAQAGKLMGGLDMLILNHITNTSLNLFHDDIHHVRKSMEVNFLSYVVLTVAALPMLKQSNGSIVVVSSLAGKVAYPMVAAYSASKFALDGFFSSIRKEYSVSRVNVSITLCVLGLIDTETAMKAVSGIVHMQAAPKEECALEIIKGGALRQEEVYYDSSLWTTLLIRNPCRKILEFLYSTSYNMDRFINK
In words: Enzyme inhibitory activity, human 11β-HSD1 (lysate of stably expressing HEK293 cells, cortisol by competitive ELISA). The conditions noted are these: human 11β-HSD1, cell lysate, 37° C. for 1 hour, read-out: h HSD1 in vitro assay (IC50 uM). Type of assay: biochemical. The procedure:
as §1, §2, §3, §4, §5, §6, §7

Turning to `CC1(C)C(=O)N(C2C3CC4CC(C3)CC2C4)N1c1ccccc1O` (stereo not drawn) [Example 219, 1-(2-hydroxyphenyl)-4,4-dimethyl-2-(adamantan-2-yl)-1,2-diazetidin-3-one], the IC50 in assay [1] turned out to be 0.23 µM; in assay [2] (Table 2), 0.56 µM.
For `CC1(C)C(=O)N(C2C3CC4CC2CC(C(N)=O)(C4)C3)N1c1cccc(Cl)c1Cl` (stereo not drawn) [Example 276, cis-4-[2-(2,3-dichlorophenyl)-3,3-dimethyl-4-oxo-1,2-diazetidin-1-yl]adamantane-1-carboxamide], the IC50 in assay [1] is 0.4 µM; in assay [2] (Table 1), 0.007 µM; in assay [2] (Table 2), 0.007 µM.
In the case of `CC1(C)C(=O)N(C2C3CC4CC(C3)CC2C4)N1Cc1cccc([N+](=O)[O-])c1` (stereo not drawn) [Example 29, 4,4-dimethyl-1-(3-nitrobenzyl)-2-(adamantan-2-yl)-1,2-diazetidin-3-one], the IC50 in assay [1] turned out to be 0.37 µM; in assay [2] (Table 2), 0.6 µM.
`CC1(C)C(=O)N([C@H]2C3CC4CC2C[C@](C(N)=O)(C4)C3)N1c1cccc2ccccc12` [Example 275, trans-4-[2-(naphthalen-1-yl)-3,3-dimethyl-4-oxo-1,2-diazetidin-1-yl]adamantane-1-carboxamide]: the IC50 in assay [1] was determined as 0.25 µM; in assay [2] (Table 1), 0.011 µM.
In the same order, the values of `CC1(C)C(=O)N([C@H]2C3CC4CC2C[C@](C(=O)O)(C4)C3)N1c1cccc2ccccc12` [Example 274, trans-4-[2-(naphthalen-1-yl)-3,3-dimethyl-4-oxo-1,2-diazetidin-1-yl]adamantane-1-carboxylic acid] are 0.25 µM and 0.011 µM.
In the case of `CC1(C)C(=O)N([C@H]2C3CC4CC2C[C@](Cl)(C4)C3)N1c1cccc2ccccc12` [Example 254, trans-2-(5-chloroadamantan-2-yl)-4,4-dimethyl-1-(naphthalen-1-yl)-1,2-diazetidin-3-one], the IC50 was determined as 0.075 µM in assay [1] and 0.012 µM in assay [2] (Table 1).
The corresponding values for `CC1(C)C(=O)N(C2C3CC4CC(C3)CC2C4)N1Cc1ccccc1C(F)(F)F` (stereo not drawn) [Example 42, 4,4-dimethyl-2-(adamantan-2-yl)-1-[2-(trifluoromethyl)benzyl]-1,2-diazetidin-3-one] are 0.24 µM and 0.025 µM.
Consider `CC1(C)C(=O)N(C2C3CC4CC2CC(C(N)=O)(C4)C3)N1Cc1ccccc1Cl` (stereo not drawn) [Example 95, 4-[2-(2-chlorobenzyl)-3,3-dimethyl-4-oxo-1,2-diazetidin-1-yl]adamantane-1-carboxamide], for which the IC50 in assay [1] came out at 0.35 µM; in assay [2] (Table 2) it was 0.13 µM.
Turning to `CC1(C)C(=O)N([C@H]2C3CC4CC2C[C@@](O)(C4)C3)N1c1cccc2ccccc12` [Example 247, cis-2-(5-hydroxyadamantan-2-yl)-4,4-dimethyl-1-(naphthalen-1-yl)-1,2-diazetidin-3-one], the IC50 in assay [1] was 0.26 µM; in assay [2] (Table 1) it was 0.027 µM.
Regarding `Cc1ccccc1N1N(C2C3CC4CC(C3)CC2C4)C(=O)C1(C)C` (stereo not drawn) [Example 192, 4,4-dimethyl-1-(2-methylphenyl)-2-(adamantan-2-yl)-1,2-diazetidin-3-one], the IC50 in assay [1] turned out to be 0.03 µM; in assay [2] (Table 2), 0.49 µM.
The corresponding values for `CC1(C)C(=O)N([C@H]2C3CC4CC2C[C@](O)(C4)C3)N1c1ccc(N)cc1` [Example 235, trans-1-(4-aminophenyl)-2-(5-hydroxyadamantan-2-yl)-4,4-dimethyl-1,2-diazetidin-3-one] are 0.75 µM and 0.056 µM.
For `COCOc1ccccc1N1N([C@H]2C3CC4CC2C[C@](Cl)(C4)C3)C(=O)C1(C)C` [Example 252, trans-2-(5-chloroadamantan-2-yl)-1-[2-(methoxymethoxy)phenyl]-4,4-dimethyl-1,2-diazetidin-3-one], the IC50 came to 0.24 µM in assay [1] and 0.034 µM in assay [2] (Table 1).
Consider `CC1(C)C(=O)N(C2CCCCCCC2)N1Cc1ccccc1Cl` [Example 73, 1-(2-chlorobenzyl)-2-cyclooctyl-4,4-dimethyl-1,2-diazetidin-3-one], for which the IC50 in assay [1] turned out to be 0.11 µM; in assay [2] (Table 2) it was 0.021 µM.
As for `COc1ccccc1N1N(C2CCCCCCC2)C(=O)C1(C)C` [Example 220, 2-cyclooctyl-1-(2-methoxyphenyl)-4,4-dimethyl-1,2-diazetidin-3-one], the IC50 in assay [1] turned out to be 0.088 µM; in assay [2] (Table 1), 0.056 µM.
On to `CC1(C)C(=O)N(C2CCCCCCC2)N1Cc1cc(Cl)ccc1Cl` [Example 75, 2-cyclooctyl-1-(2,5-dichlorobenzyl)-4,4-dimethyl-1,2-diazetidin-3-one], for which the IC50 is 0.15 µM in assay [1] and 0.038 µM in assay [2] (Table 2).
The corresponding values for `CC1(C)C(=O)N(C2C3CC4CC(C3)CC2C4)N1Cc1cccc(Cl)c1` (stereo not drawn) [Example 28, 1-(3-chlorobenzyl)-4,4-dimethyl-2-(adamantan-2-yl)-1,2-diazetidin-3-one] are 0.073 µM and 0.44 µM.
On to `Cc1ccc(C(=O)N2N(C3C4CC5CC(C4)CC3C5)C(=O)C2(C)C)c(C)c1` (stereo not drawn) [Example 160, 1-[(2,4-dimethylphenyl)carbonyl]-4,4-dimethyl-2-(adamantan-2-yl)-1,2-diazetidin-3-one], for which the IC50 is 0.16 µM in assay [1] and 0.52 µM in assay [2] (Table 1).
Regarding `Cc1ccc(C)c(CN2N(C3C4CC5CC(C4)CC3C5)C(=O)C2(C)C)c1` (stereo not drawn) [Example 56, 1-(2,5-dimethylbenzyl)-4,4-dimethyl-2-(adamantan-2-yl)-1,2-diazetidin-3-one], the IC50 in assay [1] was 0.052 µM; in assay [2] (Table 2), 0.054 µM.
The corresponding values for `CC1(C)C(=O)N(C2C3CC4CC(C3)CC2C4)N1CCc1ccccc1` (stereo not drawn) [Example 266, 4,4-dimethyl-1-(2-phenylethyl)-2-(adamantan-2-yl)-1,2-diazetidin-3-one] are 0.47 µM and 0.55 µM.
The corresponding values for `CC1(C)C(=O)N(C2C3CC4CC(C3)CC2C4)N1Cc1cc(F)ccc1F` (stereo not drawn) [Example 20, 1-(2,5-difluorobenzyl)-4,4-dimethyl-2-(adamantan-2-yl)-1,2-diazetidin-3-one] are 0.2 µM and 0.35 µM.
Take `CC1(C)C(=O)N(C2C3CC4CC(C3)CC2C4)N1Cc1ccc(F)c(F)c1` (stereo not drawn) [Example 16, 1-(3,4-difluorobenzyl)-4,4-dimethyl-2-(adamantan-2-yl)-1,2-diazetidin-3-one]: the IC50 in assay [1] is 0.1 µM; in assay [2] (Table 2), 0.8 µM.
For the compound `CC1(C)C(=O)N(C2CC3CCC2C3)N1c1cccc2ccccc12` (stereo not drawn) [Example 225, 2-(bicyclo[2.2.1]heptan-2-yl)-4,4-dimethyl-1-(naphthalen-1-yl)-1,2-diazetidin-3-one], the IC50 is 0.012 µM in assay [1] and 0.036 µM in assay [2] (Table 1).
Regarding `CC1(C)C(=O)N(C2CC3CCC2C3)N1Cc1cccc(Cl)c1Cl` (stereo not drawn) [Example 79, 2-(bicyclo[2.2.1]heptan-2-yl)-1-(2,3-dichlorobenzyl)-4,4-dimethyl-1,2-diazetidin-3-one], the IC50 in assay [1] was 0.36 µM; in assay [2] (Table 2) it was 0.22 µM.
The corresponding values for `CC1(C)C(=O)N(C2C3CC4CC(C3)CC2C4)N1Cc1ccc(Br)cc1` (stereo not drawn) [Example 53, 1-(4-bromobenzyl)-4,4-dimethyl-2-(adamantan-2-yl)-1,2-diazetidin-3-one] are 0.06 µM and 0.35 µM.
Turning to `Cc1ccccc1CN1N(C2C3CC4CC(C3)CC2C4)C(=O)C1(C)C` (stereo not drawn) [Example 30, 4,4-dimethyl-1-(2-methylbenzyl)-2-(adamantan-2-yl)-1,2-diazetidin-3-one], the IC50 in assay [1] came to 0.1 µM; in assay [2] (Table 2), 0.047 µM.
